Test results as given in ChEMBL document CHEMBL4359907, “Scalable and cost-effective tosylation-mediated synthesis of antifungal and fungal diagnostic 6″-Modified amphiphilic kanamycins” (Eur J Med Chem, 2019).
Values after ≈ are worked out from the molar mass of the structure shown.

Legend:
Staphylococcus aureus [1] = assay: Antibacterial activity against methicillin-resistant Staphylococcus aureus ATCC 33591 incubated for 18 hrs by two fold dilution method; format: functional; conditions: ATCC 33591, 18 h
Staphylococcus aureus [2] = assay: Antibacterial activity against methicillin-resistant Staphylococcus aureus ATCC 43300 incubated for 18 hrs by two fold dilution method; format: functional; conditions: ATCC 43300, 18 h
Candida parapsilosis = assay: Antifungal activity against azole-resistant Candida parapsilosis Cas08-0490 incubated for 24 to 36 hrs by two fold dilution method; format: functional; conditions: Lodderomyces parapsilosis
Cryptococcus neoformans [3] = assay: Antifungal activity against Cryptococcus neoformans H99 incubated for 24 to 36 hrs by two fold dilution method; format: functional
Candida albicans [4] = assay: Antifungal activity against azole-resistant Candida albicans 64124 incubated for 24 to 36 hrs by two fold dilution method; format: functional
Staphylococcus aureus [5] = assay: Antibacterial activity against Staphylococcus aureus ATCC 25923 incubated for 18 hrs by two fold dilution method; format: functional; conditions: ATCC 25923, 18 h
Candida tropicalis = assay: Antifungal activity against Candida tropicalis 95-41 incubated for 24 to 36 hrs by two fold dilution method; format: functional
Rhodotorula mucilaginosa = assay: Antifungal activity against Rhodotorula pilimanae ATCC 26423 incubated for 24 to 36 hrs by two fold dilution method; format: functional
Candida albicans [6] = assay: Antifungal activity against azole-susceptible Candida albicans MYA2876 incubated for 24 to 36 hrs by two fold dilution method; format: functional
Diutina rugosa = assay: Antifungal activity against Candida rugosa 95-967 incubated for 24 to 36 hrs by two fold dilution method; format: functional
Candida albicans [7] = assay: Antifungal activity against Candida albicans B-311 incubated for 24 to 36 hrs by two fold dilution method; format: functional
Cryptococcus neoformans [8] = assay: Antifungal activity against Cryptococcus neoformans VR-54 incubated for 24 to 36 hrs by two fold dilution method; format: functional
Escherichia coli = assay: Antibacterial activity against Escherichia coli ATCC 25922 incubated for 18 hrs by two fold dilution method; format: functional; conditions: ATCC 25922, 18 h
Fusarium graminearum = assay: Antifungal activity against Fusarium graminearum B4-5A incubated for 24 to 36 hrs by two fold dilution method; format: functional
HeLa = assay: Cytotoxicity against human HeLa cells assessed as reduction in cell viability incubated for 24 hrs by MTT assay; format: cell-based

Compound | MIC (Staphylococcus aureus [1]) | MIC (Staphylococcus aureus [2]) | MIC (Candida parapsilosis) | MIC (Cryptococcus neoformans [3]) | MIC (Candida albicans [4]) | MIC (Staphylococcus aureus [5]) | MIC (Candida tropicalis) | MIC (Rhodotorula mucilaginosa) | MIC (Candida albicans [6]) | MIC (Diutina rugosa) | MIC (Candida albicans [7]) | MIC (Cryptococcus neoformans [8]) | MIC (Escherichia coli) | MIC (Fusarium graminearum) | IC50 (HeLa)
CCCCCCCCNC[C@H]1O[C@H](O[C@@H]2[C@@H](O)[C@H](O[C@H]3O[C@H](CN)[C@@H](O)[C@H](O)[C@H]3O)[C@@H](N)C[C@H]2N)[C@H](O)[C@@H](N)[C@@H]1O.Cl.Cl.Cl.Cl.Cl | > 256 µg/mL | 128 µg/mL | > 256 µg/mL | 16 µg/mL | 256 µg/mL | 128 µg/mL | > 256 µg/mL | 16 µg/mL | > 256 µg/mL | > 256 µg/mL | > 256 µg/mL | 16 µg/mL | 256 µg/mL | 32 µg/mL | –
CCCCCCCCCCCCCCCCSC[C@H]1O[C@H](O[C@@H]2[C@@H](O)[C@H](O[C@H]3O[C@H](CN)[C@@H](O)[C@H](O)[C@H]3O)[C@@H](N)C[C@H]2N)[C@H](O)[C@@H](N)[C@@H]1O.Cl.Cl.Cl.Cl | 32 µg/mL | 16 µg/mL | 4 µg/mL | 2 µg/mL | 4 µg/mL | 16 µg/mL | 4 µg/mL | 2 µg/mL | 4 µg/mL | 4 µg/mL | 4 µg/mL | 2 µg/mL | 32 µg/mL | 2 µg/mL | 37.7 µg/mL
CCCCCCCCCCCCCCSC[C@H]1O[C@H](O[C@@H]2[C@@H](O)[C@H](O[C@H]3O[C@H](CN)[C@@H](O)[C@H](O)[C@H]3O)[C@@H](N)C[C@H]2N)[C@H](O)[C@@H](N)[C@@H]1O.Cl.Cl.Cl.Cl | 16 µg/mL | 16 µg/mL | 16 µg/mL | 2 µg/mL | 4 µg/mL | 16 µg/mL | 4 µg/mL | 2 µg/mL | 4 µg/mL | 8 µg/mL | 8 µg/mL | 2 µg/mL | 16 µg/mL | 2 µg/mL | 52.9 µg/mL
CCCCCCCCS(=O)(=O)OC[C@H]1O[C@H](O[C@@H]2[C@@H](O)[C@H](O[C@H]3O[C@H](CN)[C@@H](O)[C@H](O)[C@H]3O)[C@@H](N)C[C@H]2N)[C@H](O)[C@@H](N)[C@@H]1O | – | – | 16 µg/mL (≈ 24.2 µM) | 4 µg/mL (≈ 6.05 µM) | 16 µg/mL (≈ 24.2 µM) | – | 16 µg/mL (≈ 24.2 µM) | 4 µg/mL (≈ 6.05 µM) | 16 µg/mL (≈ 24.2 µM) | 32 µg/mL (≈ 48.4 µM) | 16 µg/mL (≈ 24.2 µM) | 4 µg/mL (≈ 6.05 µM) | – | 8 µg/mL (≈ 12.1 µM) | –
CCCCCCSC[C@H]1O[C@H](O[C@@H]2[C@@H](O)[C@H](O[C@H]3O[C@H](CN)[C@@H](O)[C@H](O)[C@H]3O)[C@@H](N)C[C@H]2N)[C@H](O)[C@@H](N)[C@@H]1O.Cl.Cl.Cl.Cl | > 256 µg/mL | > 256 µg/mL | > 256 µg/mL | 128 µg/mL | > 256 µg/mL | 256 µg/mL | > 256 µg/mL | 32 µg/mL | > 256 µg/mL | > 256 µg/mL | > 256 µg/mL | 64 µg/mL | 128 µg/mL | 256 µg/mL | –
CCCCCCCCCCCCCCCCNC[C@H]1O[C@H](O[C@@H]2[C@@H](O)[C@H](O[C@H]3O[C@H](CN)[C@@H](O)[C@H](O)[C@H]3O)[C@@H](N)C[C@H]2N)[C@H](O)[C@@H](N)[C@@H]1O.Cl.Cl.Cl.Cl.Cl | 32 µg/mL | 32 µg/mL | 4 µg/mL | 2 µg/mL | 4 µg/mL | 16 µg/mL | 4 µg/mL | 2 µg/mL | 8 µg/mL | 4 µg/mL | 4 µg/mL | 2 µg/mL | 32 µg/mL | 2 µg/mL | 41.6 µg/mL
Cc1ccc(S(=O)(=O)OC[C@H]2O[C@H](O[C@@H]3[C@@H](O)[C@H](O[C@H]4O[C@H](CN)[C@@H](O)[C@H](O)[C@H]4O)[C@@H](N)C[C@H]3N)[C@H](O)[C@@H](N)[C@@H]2O)cc1.Cl.Cl.Cl.Cl | > 256 µg/mL | > 256 µg/mL | > 256 µg/mL | > 256 µg/mL | > 256 µg/mL | 32 µg/mL | > 256 µg/mL | 128 µg/mL | > 256 µg/mL | > 256 µg/mL | > 256 µg/mL | > 256 µg/mL | 16 µg/mL | 128 µg/mL | –
CCCCCCCCCCNC[C@H]1O[C@H](O[C@@H]2[C@@H](O)[C@H](O[C@H]3O[C@H](CN)[C@@H](O)[C@H](O)[C@H]3O)[C@@H](N)C[C@H]2N)[C@H](O)[C@@H](N)[C@@H]1O.Cl.Cl.Cl.Cl.Cl | 256 µg/mL | 64 µg/mL | 256 µg/mL | 8 µg/mL | 128 µg/mL | 128 µg/mL | > 256 µg/mL | 8 µg/mL | > 256 µg/mL | 256 µg/mL | 256 µg/mL | 8 µg/mL | 64 µg/mL | 32 µg/mL | –
CCCCCCNC[C@H]1O[C@H](O[C@@H]2[C@@H](O)[C@H](O[C@H]3O[C@H](CN)[C@@H](O)[C@H](O)[C@H]3O)[C@@H](N)C[C@H]2N)[C@H](O)[C@@H](N)[C@@H]1O.Cl.Cl.Cl.Cl.Cl | > 256 µg/mL | > 256 µg/mL | > 256 µg/mL | 128 µg/mL | > 256 µg/mL | 64 µg/mL | > 256 µg/mL | 128 µg/mL | > 256 µg/mL | > 256 µg/mL | > 256 µg/mL | 128 µg/mL | 256 µg/mL | 64 µg/mL | –
NC[C@H]1O[C@H](O[C@H]2[C@H](O)[C@@H](O[C@H]3O[C@H](CO)[C@@H](O)[C@H](N)[C@H]3O)[C@H](N)C[C@@H]2N)[C@H](O)[C@@H](O)[C@@H]1O [KANAMYCIN] | > 256 µg/mL | > 256 µg/mL | – | – | ≥ 256 µg/mL | 4 µg/mL (≈ 8.26 µM) | – | ≥ 256 µg/mL | ≥ 256 µg/mL | – | ≥ 256 µg/mL | ≥ 256 µg/mL | 4 µg/mL (≈ 8.26 µM) | ≥ 256 µg/mL | –
CCCCCCCCSC[C@H]1O[C@H](O[C@@H]2[C@@H](O)[C@H](O[C@H]3O[C@H](CN)[C@@H](O)[C@H](O)[C@H]3O)[C@@H](N)C[C@H]2N)[C@H](O)[C@@H](N)[C@@H]1O.Cl.Cl.Cl.Cl | 256 µg/mL | 256 µg/mL | > 256 µg/mL | 128 µg/mL | 128 µg/mL | 128 µg/mL | > 256 µg/mL | 32 µg/mL | 256 µg/mL | 256 µg/mL | > 256 µg/mL | 64 µg/mL | 128 µg/mL | 128 µg/mL | –
CCCCCCCCCCSC[C@H]1O[C@H](O[C@@H]2[C@@H](O)[C@H](O[C@H]3O[C@H](CN)[C@@H](O)[C@H](O)[C@H]3O)[C@@H](N)C[C@H]2N)[C@H](O)[C@@H](N)[C@@H]1O.Cl.Cl.Cl.Cl | 64 µg/mL | 32 µg/mL | 128 µg/mL | 8 µg/mL | 64 µg/mL | 64 µg/mL | 128 µg/mL | 4 µg/mL | 64 µg/mL | 64 µg/mL | 128 µg/mL | 8 µg/mL | 64 µg/mL | 32 µg/mL | –
